These are literature values, as cited in publication PMC12979414, “Ascending single-dose study of the safety, pharmacokinetics, and pharmacodynamics of CSTI-500, a novel monoamine triple reuptake inhibitor, first-in-human” (Psychopharmacology, 2025).

Structures are written as SMILES. Where two headings read alike, the source gives them in different places.

For series [1], the system named is DAT.
Series [2] concerns SERT.
Details of series [3]: method as in Deest et al. [2021]. The following applies: PWS patients, 6 months, doses as low as 25 mg; ref Deest et al. [2021].
On the set-up of series [4]: method as in Zheng et al. [2015]. Conditions: multiple-ascending-dose study, healthy subjects; ref Zheng et al. [2015].
For series [5] the following is noted: clinical trials for Parkinson's disease; ref Astrup et al. [2008].
Where [6] appears, read: PET occupancy study in healthy subjects, ref Learned et al. [2012].

Regarding `COC[C@@H]1[C@@H](c2ccc(Cl)c(Cl)c2)C[C@@H]2CC[C@H]1N2` [GSK372475], where the note is “1-2 mg/d, two 10-week phase II trials in MDD patients, ref Learned et al. [2012]”, the efficacy and tolerability result was “neither efficacious nor well-tolerated”. Moreover, the DAT occupancy in series [1] (setting [6]) is given as 60-80%. Moreover, in series [2] (setting [6]), the SERT occupancy is reported as 55-75%.
`CN[C@H]1CC[C@@H](c2ccc(Cl)c(Cl)c2)c2ccccc21` [sertraline]: the temper outbursts result in series [3] was “significantly reduced the temper outbursts”.
With `N[C@@H]1CC[C@@H](c2ccc(Cl)c(Cl)c2)c2ccccc21` [SEP-225289], the depression symptoms entry (phase II study in MDD patients, 8 weeks of treatment, ref Sharma et al. [2015]) is given as “no reduction of depression symptoms”. Besides, the “DAT occupancies, average values” in series [1] (single-doses 8-16 mg, healthy volunteers, ref DeLorenzo et al. [2011]) was 33-49%. For the same compound, the SERT occupancy entry in series [2] (single-doses 8-16 mg, healthy volunteers, all doses, ref DeLorenzo et al. [2011]) was “below 20%”.
`CN1Cc2cc(-c3ccc(N)nn3)ccc2[C@H](c2ccc3ccccc3c2)C1` [BMS-820836]: the clinical efficacy result (0.25-2 mg/d, treatment-resistant MDD, two phase IIb trials, ref Bhagwagar et al. [2015]) was “no clinical superiority compared to duloxetine or escitalopram treatment”. Further, the “striatal DAT occupancies” value in series [1] (0.5-2 mg/d, healthy volunteers, ref Zheng et al. [2015]) is reported as 14-30%. The heart rate entry in series [4] is recorded as “linear dose-related escalation in heart rate”. Also, the SERT occupancy result in series [2] (0.5 mg/d, near steady-state, healthy subjects, ref Zheng et al. [2015]) is “about 80%”.
Consider `CCOC[C@@H]1[C@@H](c2ccc(Cl)c(Cl)c2)C[C@@H]2CC[C@H]1N2C` [tesofensine], for which the “weight loss as an AE” value in series [5] is recorded as “significant weight loss”.
